Laboratory results from patent publication US5478828A, “Piperazinyl-and piperidinyl-cyclohexanols” (Bristol-Myers Squibb Company, priority 1995, dated 1995).
Structures can show the parent of a compound that is named as a salt.

What follows are molecules tested against 5-HT1A receptor (assay: In vitro receptor binding, 5-HT1A).
Description: In vitro IC50 test values for binding to the 5-HT1A receptor were determined for representative compounds of Formula I by the method of S. J. Peroutka, Brain Research 344, 167 (1985); with only minor modifications. Test IC50 values lower than 100 nM are considered to reflect activity at the 5-HT1A receptor.

| SMILES | IC50 [nM] |
| --- | --- |
| COc1ccc(F)c(CN2CCN([C@H]3CC[C@](O)(c4ccc(F)cc4)CC3)CC2)c1 [Example 40, Z-1-(4-Fluorophenyl)-4,-[4,-[(2-fluoro-5-methoxyphenyl)methyl]-1piperazinyl]cyclohexanol] | 3.45 |
| COc1cccc(CC2CCN([C@H]3CC[C@](O)(c4ccc(F)cc4)CC3)CC2)c1 [Example 48] | 31.9 |
| COc1cccc(CC2CCN([C@H]3CC[C@](O)(c4ccc5c(c4)OCO5)CC3)CC2)c1 [Example 42, Z-1-(1,3-Benzodioxol-5-yl)-4-[4-[(3-methoxyphenyl)methyl]-1-piperidinyl]cyclohexanol] | 4.4 |
| O[C@]1(c2ccc3c(c2)OCO3)CC[C@H](N2CCN(Cc3ccccc3I)CC2)CC1 [Example 32, Z-1-(1,3-Benzodioxol-5-yl)-4-[4-[(2-iodophenyl)methyl]-1-piperazinyl]cyclohexanol] | 1.2 |
| COc1cccc(CN2CCN([C@H]3CC[C@](O)(c4ccc(F)cc4)CC3)CC2)c1 [Example 34, Z-1-(4-Fluorophenyl)-4-[4-[(3-methoxyphenyl)methyl]-1-piperazinyl]cyclohexanol] | 10.6 |
| O[C@]1(c2ccc3c(c2)OCO3)CC[C@H](N2CCN(Cc3cccc(F)c3)CC2)CC1 [Example 22, Z-1-(1,3-Benzodioxol-5-yl)-4-[4-[(3-fluorophenyl)methyl]-1-piperazinyl]cyclohexanol] | 13.4 |
| O[C@]1(c2ccc3c(c2)OCO3)CC[C@H](N2CCN(Cc3ccccc3Br)CC2)CC1 [Example 50, Z-1-(1,3-Benzodioxol-5-yl)-4-[4-[(2-bromophenyl)methyl]-1-piperazinyl]cyclohexanol] | 1.2 |
| O[C@]1(c2ccc3c(c2)OCCO3)CC[C@@H](N2CCN(Cc3ccccc3)CC2)CC1 [Example 20-E, E-1-(1,4-Benzodioxan-6-yl)-4-[4-(phenylmethyl)-1-piperazinyl]cyclohexanol] | 5.3 |
| O[C@]1(c2ccc3c(c2)OCO3)CC[C@H](N2CCN(Cc3cccc4c3OCO4)CC2)CC1 [Example 33, Z-1-(1,3-Benzodioxol-5-yl)-4-[4-[(1,3-benzodioxo-4-yl)methyl]-1-piperazinyl]-cyclohexanol] | 34.9 |
| O[C@]1(c2ccc3c(c2)OCO3)CC[C@H](N2CCN(C(c3ccccc3)c3ccccc3)CC2)CC1 [Example 51, Z-1-(1,3-Benzodioxol-5-yl)-4-[4-(diphenylmethyl)-1-piperazinyl]cyclohexanol] | 28.6 |
| CO[C@]1(c2ccc3c(c2)OCO3)CC[C@H](N2CCC(Cc3cc(F)ccc3F)CC2)CC1 [Example 46, Z-1-[4-(1,3-Benzodioxol-5-yl)-4-methoxy-1-cyclohexyl]-4-[(2,5,-difluorophenyl)-methyl]piperidine fumarate] | 16.2 |
| COc1cccc(CC2CCN([C@H]3CC[C@](OC)(c4ccc5c(c4)OCCO5)CC3)CC2)c1 [Example 45, Z-1-[4-(1,4-Benzodioxan-6-yl)-4-methoxy-1-cyclohexyl]-4-[3-(methoxyphenyl)methyl]-piperidine fumarate] | 3.4 |
| O[C@]1(c2ccc3c(c2)OCO3)CC[C@H](N2CCN(Cc3ccccc3Cl)CC2)CC1 [Example 27, Z-1-(1,3-Benzodioxol-5-yl)-4-[4-[(2-chlorophenyl)methyl]-1-piperazinyl]cyclohexanol] | 1.85 |
| O[C@]1(c2ccc3c(c2)OCO3)CC[C@H](N2CCC(Cc3cc(F)ccc3F)CC2)CC1 [Example 43, Z-1-(1,3-Benzodioxol-5-yl)-4-[4-[(2,5-difluorophenyl)methyl]-1-piperidinyl]cyclohexanol] | 4.9 |
| O[C@]1(c2ccc(C(F)(F)F)cc2)CC[C@H](N2CCN(Cc3ccccc3Cl)CC2)CC1 [Example 37, Z-1-[(4-Trifluoromethyl)phenyl]-4-[4-[(2-chlorophenyl)methyl]-1-piperazinyl]-cyclohexanol] | 25.8 |
| O[C@]1(c2ccc(F)cc2)CC[C@H](N2CCC(Cc3cc(F)ccc3F)CC2)CC1 [Example 49, Z-1-(4-Fluorophenyl)-4-[4-[(2,5-difluorophenyl)methyl]-1-piperidinyl]cyclohexanol] | 57.6 |
